According to patent US8785457B2 (Cellzome Limited, priority 2009, dated 2014):
Read-outs that look alike come from different tables or passages of the source.

Molecular target: T1, PI3K delta (PI3 Kd) (Homo sapiens, UniProt O00329)
T1 construct: endogenous in cells; host or cells: Jurkat, clone E6-1 (ATCC TIB-152) cell lysate
Experiment: kinobeads assay, PI3K delta
Format: binding
Procedure, shortened: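 Competitive binding in Jurkat cell lysate (5 mg/ml total protein): test compounds at various concentrations competed with beads bearing immobilized phenylmorpholin-chromen ligand. Bead-bound kinases were eluted and quantified by antibody dot blot with infrared detection; IC50 values came from dose-response curves.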

[1] = Further Kinobeads Data, read-out: PI3Kd

T1 sequence (O00329 whole entry): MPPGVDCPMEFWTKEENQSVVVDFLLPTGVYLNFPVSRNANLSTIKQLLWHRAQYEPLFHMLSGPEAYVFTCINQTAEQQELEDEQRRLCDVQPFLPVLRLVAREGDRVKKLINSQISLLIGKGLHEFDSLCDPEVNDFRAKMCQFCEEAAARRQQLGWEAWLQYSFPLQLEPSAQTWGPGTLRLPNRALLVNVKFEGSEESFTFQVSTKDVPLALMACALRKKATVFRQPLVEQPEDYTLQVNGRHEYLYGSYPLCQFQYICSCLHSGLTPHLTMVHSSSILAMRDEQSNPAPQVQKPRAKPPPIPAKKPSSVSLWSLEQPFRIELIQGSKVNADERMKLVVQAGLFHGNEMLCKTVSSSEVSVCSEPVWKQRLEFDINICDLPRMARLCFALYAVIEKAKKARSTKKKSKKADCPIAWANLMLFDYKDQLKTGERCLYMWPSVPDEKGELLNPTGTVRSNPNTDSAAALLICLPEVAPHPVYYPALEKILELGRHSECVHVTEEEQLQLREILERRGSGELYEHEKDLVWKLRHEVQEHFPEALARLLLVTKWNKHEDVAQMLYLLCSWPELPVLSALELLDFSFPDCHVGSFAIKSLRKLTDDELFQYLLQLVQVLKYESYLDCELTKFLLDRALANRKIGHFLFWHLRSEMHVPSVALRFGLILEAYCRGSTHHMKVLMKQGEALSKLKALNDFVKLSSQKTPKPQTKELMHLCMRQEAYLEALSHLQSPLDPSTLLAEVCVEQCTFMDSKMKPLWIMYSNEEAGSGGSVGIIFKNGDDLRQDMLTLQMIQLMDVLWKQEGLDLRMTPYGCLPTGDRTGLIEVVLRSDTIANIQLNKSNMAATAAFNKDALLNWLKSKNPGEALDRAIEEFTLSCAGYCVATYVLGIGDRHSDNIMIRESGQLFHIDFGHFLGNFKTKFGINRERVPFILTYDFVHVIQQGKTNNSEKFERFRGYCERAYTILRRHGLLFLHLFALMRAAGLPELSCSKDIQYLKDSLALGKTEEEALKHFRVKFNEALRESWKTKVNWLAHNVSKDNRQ
T1 sequence (P27986 whole entry partner): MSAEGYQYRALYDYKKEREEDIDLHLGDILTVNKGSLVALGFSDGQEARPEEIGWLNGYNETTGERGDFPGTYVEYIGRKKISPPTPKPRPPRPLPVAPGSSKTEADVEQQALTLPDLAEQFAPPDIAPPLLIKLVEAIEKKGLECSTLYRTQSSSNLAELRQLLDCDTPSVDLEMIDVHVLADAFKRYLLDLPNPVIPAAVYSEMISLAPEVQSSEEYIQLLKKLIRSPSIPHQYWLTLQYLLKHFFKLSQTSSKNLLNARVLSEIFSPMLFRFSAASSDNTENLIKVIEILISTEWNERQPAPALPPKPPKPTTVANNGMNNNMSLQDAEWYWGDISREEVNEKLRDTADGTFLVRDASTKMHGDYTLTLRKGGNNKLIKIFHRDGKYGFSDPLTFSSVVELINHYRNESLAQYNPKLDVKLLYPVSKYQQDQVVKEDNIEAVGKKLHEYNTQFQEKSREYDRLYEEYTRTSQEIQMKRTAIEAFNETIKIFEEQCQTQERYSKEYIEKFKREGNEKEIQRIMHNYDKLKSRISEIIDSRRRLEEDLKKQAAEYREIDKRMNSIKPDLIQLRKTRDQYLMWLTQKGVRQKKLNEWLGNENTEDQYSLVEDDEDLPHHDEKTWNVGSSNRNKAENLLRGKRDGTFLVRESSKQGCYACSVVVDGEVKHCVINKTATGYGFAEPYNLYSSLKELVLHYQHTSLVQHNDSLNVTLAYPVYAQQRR

IC50 [1]	SMILES	further results
–	C[C@H]1COCCN1c1nc(-c2ccc(NC(=O)Nc3ccc(F)cc3)cc2)nc2c1CN(C)C2 [Example 52, (S)-1-(4-fluorophenyl)-3-(4-(6-methyl-4-(3-methylmorpholino)-6,7-dihydro-5H-pyrrolo[3,4-d]pyrimidin-2-yl)phenyl)urea]	IC50 (kinobeads assay, Table 4, read-out: Inhibition values (IC50) PI3Kd): > 10 µM; IC50 (kinobeads assay, Table 6, read-out: Inhibition values (IC50) PI3Kd): > 10 µM
> 10 µM	CCNC(=O)Nc1cc(F)c(-c2nc3c(c(N4CCOC[C@@H]4C)n2)CN(C(=O)OCC)C3)cc1F [Example 141, (S)-ethyl 2-(4-(3-ethylureido)-2,5-difluorophenyl)-4-(3-methylmorpholino)-5H-pyrrolo[3,4-d]pyrimidine-6(7H)-carboxylate]	–
> 10 µM	C[C@H]1COCCN1c1nc(-c2ccc(NC(=O)NC3CC3)cc2F)nc2c1CN(C)C2 [Example 147, (S)-1-cyclopropyl-3-(3-fluoro-4-(6-methyl-4-(3-methylmorpholino)-6,7-dihydro-5H-pyrrolo[3,4-d]pyrimidin-2-yl)phenyl)urea]	–
> 10 µM	CCNC(=O)Nc1ccc(-c2nc3c(c(N4CCOC[C@@H]4C)n2)CN(C(=O)OC(C)(C)C)C3)c(F)c1 [Example 153, (S)-tert-butyl 2-(4-(3-ethylureido)-2-fluorophenyl)-4-(3-methylmorpholino)-5H-pyrrolo[3,4-d]pyrimidine-6-(7H)-carboxylate]	–
> 10 µM	CCNC(=O)Nc1ccc(-c2nc3c(c(N4CCOCC4)n2)CN(C)C3)c(F)c1 [Example 154, 1-ethyl-3-(3-fluoro-4-(6-methyl-4-morpholino-6,7-dihydro-5H-pyrrolo[3,4-d]pyrimidin-2-yl)phenyl)urea]	–
> 10 µM	CC(=O)N1Cc2nc(-c3ccc(NC(=O)NC4CC4)cc3F)nc(N3CCOC[C@@H]3C)c2C1 [Example 155, (S)-1-(4-(6-acetyl-4-(3-methylmorpholino)-6,7-dihydro-5H-pyrrolo[3,4-d]pyrimidin-2-yl)-3-fluorophenyl)-3-cyclopropylurea]	–
> 10 µM	CCNC(=O)Nc1ccc(-c2nc3c(c(N4CCOC[C@@H]4C)n2)CN(C)C3)c(F)c1 [Example 160, (S)-1-ethyl-3-(3-fluoro-4-(6-methyl-4-(3-methylmorpholino)-6,7-dihydro-5H-pyrrolo[3,4-d]pyrimidin-2-yl)phenyl)urea]	–
> 10 µM	C[C@H]1COCCN1c1nc(-c2ccc(NC(=O)NC3CC3)cc2F)nc2c1CCNC2 [Example 163, (S)-1-cyclopropyl-3-(3-fluoro-4-(4-(3-methylmorpholino)-5,6,7,8-tetrahydropyrido[3,4-d]pyrimidin-2-yl)phenyl)urea]	–
> 10 µM	CCNC(=O)Nc1ccc(-c2nc3c(c(N4CCOC[C@@H]4C)n2)CCNC3)c(F)c1 [Example 164, (S)-1-ethyl-3-(3-fluoro-4-(4-(3-methylmorpholino)-5,6,7,8-tetrahydropyrido[3,4-d]pyrimidin-2-yl)phenyl)urea]	–
1 to 10 µM	CCOC(=O)N1Cc2nc(-c3ccc(NC(=O)NCCO)cc3F)nc(N3CCOC[C@@H]3C)c2C1 [Example 167, (S)-Ethyl 2-(2-fluoro-4-(3-(2-hydroxyethyl)ureido)phenyl)-4-(3-methylmorpholino)-5H-pyrrolo[3,4-d]pyrimidine-6(7H)-carboxylate]	–
1 to 10 µM	CCOC(=O)N1Cc2nc(-c3ccc(NC(=O)NCCF)cc3F)nc(N3CCOC[C@@H]3C)c2C1 [Example 168, (S)-ethyl 2-(2-fluoro-4-(3-(2-fluoroethyl)ureido)phenyl)-4-(3-methylmorpholino)-5H-pyrrolo[3,4-d]pyrimidine-6(7H)-carboxylate]	–
> 10 µM	CCOC(=O)N1Cc2nc(-c3ccc(NC(=O)NCCO)cc3F)nc(N3CCOCC3)c2C1 [Example 171, ethyl 2-(2-fluoro-4-(3-(2-hydroxyethyl)ureido)phenyl)-4-morpholino-5H-pyrrolo[3,4-d]pyrimidine-6(7H)-carboxylate]	–
> 10 µM	CC(C)C(=O)N1Cc2nc(-c3ccc(NC(=O)NC4CC4)cc3F)nc(N3CCOC[C@@H]3C)c2C1 [Example 174, (S)-1-cyclopropyl-3-(3-fluoro-4-(6-isobutyryl-4-(3-methylmorpholino)-6,7-dihydro-5H-pyrrolo[3,4-d]pyrimidin-2-yl)phenyl)urea]	–
> 10 µM	C[C@H]1COCCN1c1nc(-c2ccc(NC(=O)NC3CC3)cc2F)nc2c1CN(S(C)(=O)=O)C2 [Example 177, (S)-1-cyclopropyl-3-(3-fluoro-4-(4-(3-methylmorpholino)-6-(methylsulfonyl)-6,7-dihydro-5H-pyrrolo[3,4-d]pyrimidin-2-yl)phenyl)urea]	–
> 10 µM	COC(=O)N1Cc2nc(-c3ccc(NC(=O)NC4CC4)cc3F)nc(N3CCOC[C@H]3C)c2C1 [Example 180, (R)-methyl 2-(4-(3-cyclopropylureido)-2-fluorophenyl)-4-(3-methylmorpholino)-5H-pyrrolo[3,4-d]pyrimidine-6(7H)-carboxylate]	–
> 10 µM	COC(=O)N1Cc2nc(-c3ccc(NC(=O)NCCO)cc3F)nc(N3CCOC[C@@H]3C)c2C1 [Example 181, (S)-methyl 2-(2-fluoro-4-(3-(2-hydroxyethyl)ureido)phenyl)-4-(3-methylmorpholino)-5H-pyrrolo[3,4-d]pyrimidine-6(7H)-carboxylate]	–
> 10 µM	COC(=O)N1Cc2nc(-c3ccc(NC(=O)NCCF)cc3F)nc(N3CCOC[C@@H]3C)c2C1 [Example 183, (S)-methyl 2-(2-fluoro-4-(3-(2-fluoroethyl)ureido)phenyl)-4-(3-methylmorpholino)-5H-pyrrolo[3,4-d]pyrimidine-6(7H)-carboxylate]	–
1 to 10 µM	CC(C)N1Cc2nc(-c3ccc(NC(=O)NCCF)cc3F)nc(N3CCOCC3)c2C1 [Example 185, 1-(3-fluoro-4-(6-isopropyl-4-morpholino-6,7-dihyro-5H-pyrrolo[3,4-d]pyrimidin-2-yl)phenyl)-3-(2-fluoroethyl)urea]	–
1 to 10 µM	CC(C)N1Cc2nc(-c3ccc(NC(=O)NCCF)cc3F)nc(N3CCOC[C@@H]3C)c2C1 [Example 186, (S)-1-(3-fluoro-4-(6-isopropyl-4-(3-methylmorpholino)-6,7-dihydro-5H-pyrrolo[3,4-d]pyrimidin-2-yl)phenyl)-3-(2-fluoroethyl)urea]	–
> 10 µM	CC(C)N1Cc2nc(-c3ccc(NC(=O)NCCO)cc3F)nc(N3CCOC[C@@H]3C)c2C1 [Example 187, (S)-1-(3-fluoro-4-(6-isopropyl-4-(3-methylmorpholino)-6,7-dihydro-5H-pyrrolo[3,4-d]pyrimidin-2-yl)phenyl)-3-(2-hydroxyethyl)urea]	–
> 10 µM	C[C@@H]1COCCN1c1nc(-c2ccc(NC(=O)NC3CC3)cc2F)nc2c1CN(C(=O)C1CC1)C2 [Example 188, (R)-1-(4-(6-(cyclopropanecarbonyl)-4-(3-methylmorpholino)-6,7-dihydro-5H-pyrrolo[3,4-d]pyrimidin-2-yl)-3-fluorophenyl)-3-cyclopropylurea]	–
> 10 µM	CC(C)NC(=O)N1CCc2c(nc(-c3ccc(NC(=O)NC4CC4)cc3F)nc2N2CCOC[C@@H]2C)C1 [Example 189, (S)-2-(4-(3-cyclopropylureido)-2-fluorophenyl)-N-isopropyl-4-(3-methylmorpholino)-5,6-dihydropyrido[3,4-d]pyrimidine-7(8H)-carboxamide]	–
> 10 µM	C[C@@H]1COCCN1c1nc(-c2ccc(NC(=O)NC3CC3)cc2F)nc2c1CN(C=O)C2 [Example 190, (R)-1-cyclopropyl-3-(3-fluoro-4-(6-formyl-4-(3-methylmorpholino)-6,7-dihydro-5H-pyrrolo[3,4-d]pyrimidin-2-yl)phenyl)urea]	–
> 10 µM	C[C@@H]1COCCN1c1nc(-c2ccc(NC(=O)NC3CC3)cc2F)nc2c1CN(S(C)(=O)=O)C2 [Example 191, (R)-1-cyclopropyl-3-(3-fluoro-4-(4-(3-methylmorpholino)-6-(methylsulfonyl)-6,7-dihydro-5H-pyrrolo[3,4-d]pyrimidin-2-yl)phenyl)urea]	–
